Details: acidic group

Row | Compound | pKa
1 | O=C(O)C1=C(CO)CCC1 | 4.54
2 | Oc1ccc2ccc(Cl)cc2c1 | 9.09
3 | O=[N+]([O-])c1ccc(O)c(C[NH+]2CCCCC2)c1 | 5.88
4 | O=C(NO)c1cccc([N+](=O)[O-])c1 | 8.07
5 | O=C(CC(=O)c1ccccc1)Nc1ccc([N+](=O)[O-])cc1 | 8.91
6 | CNc1ncnc2[nH]ncc12 | 10.6
7 | CCC/C=C(\C)C(=O)O | 5.13
8 | COc1cccc(C(=O)O)c1 | 4.06
9 | [N-]=[N+]=Nc1ncnc2nc[nH]c12 | 7.6
10 | O=C1CCC(C2CCCCC2)C(=O)C1 (configuration not stated) | 5.5
11 | CC(=O)N[C@H]1CONC1=O | 5.8
12 | CCNc1nnn[nH]1 | 6.12
13 | O=Cc1cccc(Cl)c1O | 6.61
14 | CC(C)C1CC(CC(=O)O)[NH2+]C1C(=O)O (configuration not stated) | 2.1
15 | [O-][N+]([O-])=C(CO)CO | 13.5
16 | O=C(O)C[C@@H]1NC(=O)CNC1=O | 3.93
17 | O=C(O)CNC(=O)CNS(=O)(=O)c1ccccc1 | 3.55
18 | S=CNc1ccccc1Cl | 10
19 | O=C(O)C1CCC[NH2+]1 (configuration not stated) | 1.99
20 | CC(C)CC([NH3+])C(=O)O (configuration not stated) | 2.46
21 | S=C(Nc1ccc(Cl)cc1)c1cccc(Br)c1 | 10.1

Row | Compound | pKa
22 | [NH3+]c1ccc(CC(=O)O)cc1 | 3.49
23 | Nc1nc(N)c2[nH]c(N)nc2n1 | 10.8
24 | O=C1CCC(=O)N1 | 9.59
25 | CC1(C)N=C(C(=O)CC(=O)C(F)(F)F)C(C)(C)N1O | 4.66
26 | Cc1c(I)cccc1C(=O)O | 3.26
27 | CCc1cc(C(=O)O)cs1 | 4.19
28 | [NH3+]C(CCc1ccc([N+](=O)[O-])cc1)C(=O)O (configuration not stated) | 3.05
29 | C[NH+](C)Cc1cccc(O)c1 | 8.88
30 | NNC(=O)C(F)(F)C(F)(F)C(F)(F)F | 8.02
31 | CC(=O)c1ccc(O)c(O)c1 | 7.8
32 | Oc1c(Cl)cc(Cl)c(Cl)c1C[NH+]1CCCCC1 | 5.06
33 | O=C([O-])CCCC(=O)NOCc1ccccc1 | 10.2
34 | C[NH2+]CCCC(=O)O | 4.03
35 | O=[N+]([O-])c1ccc(S(=O)O)cc1 | 1.86
36 | CC(=O)/C(C[NH+]1CCCCC1)=N\O | 7.05
37 | CN(C)C(=S)NCC(=O)O | 3.71
38 | O=C(O)c1cc[n+]([O-])cc1 | 2.86
39 | CCc1c(O)nn(-c2ccccc2C(=O)[O-])c1C | 12.2
40 | CC(=O)CN=O | 8.4
41 | O=C1/C(=N\O)CC/C1=N\O | 7.95
42 | Nc1ccc(S(=O)(=O)Nc2nccc(N)n2)cc1 | 9.44

Row | Compound | pKa
43 | CC#CC#CC(=O)O | 1.94
44 | COc1ccc(O)c(C)c1 | 10.2
45 | CN1C(=O)C(C)(C)NC1=S | 10.8
46 | CC(N)c1nnn[n-]1 (configuration not stated) | 8.77
47 | CC(C)c1ccc(C(=O)O)cc1 | 4.31
48 | N#CC(C#N)=NNc1ccc(Cl)cc1 | 6.15
49 | CN(C)c1cccc(NC=S)c1 | 11.8
50 | CC(=O)c1ccc(CC(=O)O)s1 | 3.8
51 | C[N+]1(CC(=O)O)CCCCC1 | 2.01
52 | CCCc1c(-c2ccccc2)n[nH]c1O | 8
53 | CC(=O)/C(=N\O)C(C)C | 9.5
54 | COc1ncnc2nc[nH]c12 | 9.16
55 | O=C(O)C(c1ccc(C2CCCCC2)cc1)C(O)c1ccccc1 (configuration not stated) | 4.24
56 | [O-]c1cccc(O)c1 | 11.3
57 | [NH3+]CC#CC#CCCC(=O)O | 4.05
58 | Cc1cc(C(=O)O)ccc1[N+](=O)[O-] | 3.65
59 | O=C([O-])[C@H](P)CC[C@H](P)C(=O)O | 4.49
60 | CC(C)([NH3+])C(=O)O | 2.39
61 | C1COCCOCc2n[nH]c(n2)COCCOCCO1 | 9.55
62 | CC1CCC(O)(C(C(=O)O)c2ccc(-c3ccccc3)cc2)CC1 (configuration not stated) | 3.45
63 | COc1ccc(-c2nc3ncncc3[nH]2)c(OC)c1 | 9.92

Row | Compound | pKa
64 | COc1nc2ncncc2[nH]1 | 7.73
65 | CC(=O)N1CCc2noc(O)c2CC1 | 4.3
66 | Cn1c(=O)[nH]c(=O)c2[nH]cnc21 | 8.49
67 | Oc1nc2ccccc2c[nH+]1 | 1.3
68 | Cc1cccc(C(=O)O)c1Cl | 3
69 | NC(=[NH2+])NOCC(=O)O | 2.69
70 | C[S+](C)CC(=O)c1ccccc1 | 8.6
71 | O=C(Nc1ccccc1)ONC(=O)c1ccccc1 | 6.4
72 | Cc1ccc(S(=O)(=O)NCCC(=[NH2+])N(C)C)cc1 | 9.84
73 | COc1ccc(O)c(N)c1 | 10
74 | Cn1c([O-])nc2nc[nH]c2c1=O | 11.9
75 | CC(O)CC(=O)O (configuration not stated) | 4.5
76 | [NH3+]C(Cc1c[nH]c(=S)[nH]1)C(=O)O (configuration not stated) | 1.84
77 | O=C1CS(=O)(=O)NC(=O)N1 | 2.7
78 | NC(=S)Nc1cccc([N+](=O)[O-])c1 | 11.1
79 | NNC(=O)C1(F)C(F)(F)C(F)(F)C(F)(F)C(F)(F)C1(F)F | 9.14
80 | O=C(O)c1ccc(O)cc1 | 4.57
81 | C#CC#CC#CCC(O)CCC(=O)O (configuration not stated) | 4.75
82 | NC(=O)Nc1[nH]c[nH+]c1C(=O)O | 2
83 | Cc1cccc(C)c1OCC(=O)O | 3.36

Same assay, conditions: basic group

Row | Compound | pKa
84 | O=C([O-])/C=C/c1c[nH]cn1 | 5.85
85 | CCOC(=O)Cc1ccccn1 | 4.25
86 | Nc1ccc2ccncc2c1 | 6.2
87 | CCCCNc1ccnc([S-])n1 | 11.1
88 | C=C(C)C(=O)OCCN(C)C | 8.06
89 | CNc1ncnc2[nH]ncc12 | 4.53
90 | Nc1ccc(-c2ccc([NH3+])cc2)cc1 | 3.66
91 | C[Si](C)(C)CN | 10.9
92 | CCN(CC)CC(=O)NCc1ccccc1 | 8.07
93 | CN(C)c1ccc(C(O)c2ccc(N(C)C)cc2)cc1 | 5.61
94 | [S-]c1cccc2cccnc12 | 8.29
95 | NC(=O)CN(CC[NH+](CC(N)=O)Cc1ccccc1O)Cc1ccccc1O | 1.89
96 | CN(C)CCCN(C)C(=O)/C=N/[O-] | 9.83
97 | c1ccc(CNC(CC2CCCCC2)CC2CCCCC2)cc1 | 7.7
98 | C[n+]1ccc(NN)c2ccccc21 | 2.61
99 | CCCCCC(C)(C)N | 10.8
100 | CC1(C)CC(=O)C(C)(C)N1 | 7.1
101 | COc1ccc2c(c1)C(O)N(C)C=C2 (configuration not stated) | 2.15
102 | C[NH+](C)CCC/N=C(\c1ccccc1)c1ccccc1Cl | 3.46
103 | O=C([O-])CN1CCCCC1 | 10.3
104 | Nc1cccc(-c2nc3ccccc3s2)c1 | 3.4
105 | CC(C)(C)C1=CC(=C2C=CC=CC=C2)C=C(C(C)(C)C)C1=O | 4.48
106 | NNC(=O)c1ccccc1[NH3+] | 1.85
107 | NCCCC[NH3+] | 9.36

Row | Compound | pKa
108 | Cc1ccc(N)cc1C | 4.94
109 | C#CC(C)(C)NC(C)(C)CC | 9
110 | Nc1cc(/C=C/c2ccccc2)nc(/C=C/c2ccccc2)c1 | 8.6
111 | N[C@H](C(=O)[O-])[C@H](O)C(=O)[O-] | 8.75
112 | CN1CC[C@@]23c4c5ccc(O)c4O[C@]2(C)C(=O)CC[C@@H]3[C@@H]1C5 | 8.08
113 | Nc1nc(N)c2[nH]c(N)nc2n1 | 6.23
114 | NCC(=O)Nc1ccccc1 | 8.12
115 | CCN(CC)CCN | 9.93
116 | Cc1c[n+](C)c([O-])nc1N | 4.76
117 | CCN(C)CCOCC[NH+](CC)CC | 8.46
118 | CC(C)NNC1CC[NH+](C(C)C)CC1 | 6.3
119 | CCC[C@H]1NC(C(=O)[O-])CS1 (some centres not stated) | 6.25
120 | OCCNC1CCN(Cc2ccccc2)CC1 | 9.24
121 | CN(C)c1cccc([N+](=O)[O-])c1 | 2.58
122 | C1CN(CC2CO2)CCO1 (configuration not stated) | 5.88
123 | COc1ccc(CN)cc1N | 9.77
124 | CC(CC(c1ccccc1)c1ccccc1)N1CCCCC1 (configuration not stated) | 8.8
125 | Cc1cc2cccnc2c2ncccc12 | 5.26
126 | N[C@H](c1ccccc1)[C@H](O)c1ccccc1 | 10.5
127 | NCCCNCCC[NH3+] | 9.72
128 | NCCCCCc1ccccc1 | 10.5
129 | Cc1cc(-c2cc(C)n(C)[nH+]2)nn1C | -0.6
130 | CN1CCCCCN1C | 6.66
131 | CC(C)(C)N | 10.7

Row | Compound | pKa
132 | Nc1ncnc2scnc12 | 2.77
133 | Nc1cc[nH+]c([S-])n1 | 3.32
134 | CN(C)S(=O)(=O)c1ccc(N)cc1 | 1.53
135 | c1ccc(CN(CC2CO2)CC2CO2)cc1 (configuration not stated) | 5.75
136 | CN(C)c1ccc(/N=N/c2ccccc2)cc1 | 2.85
137 | C[NH+](C)CCCNc1ccnc2cccc([N+](=O)[O-])c12 | 6.39
138 | COc1cccc2cccnc12 | 4.88
139 | N#CC(C#N)=NNc1ccc(Cl)cc1 | -0.79
140 | CCOc1ccc2c3c1O[C@H]1[C@@H](O)C=C[C@H]4[C@@H](C2)N(C)CC[C@@]341 | 8.03
141 | CCOC(=O)c1cnc2ccccc2c1[O-] | 9.62
142 | CNCCC#N | 8.1
143 | c1ccc(NC2CCCCC2)cc1 | 5.6
144 | COc1ncnc2nc[nH]c12 | 2.21
145 | c1ccc2c(c1)[NH+]=C(c1ccncc1)[NH2+]2 | 1.96
146 | CN1C(C)(C)CCCC1(C)C | 11.2
147 | CC(Cl)CN(C)C (configuration not stated) | 8.12
148 | Nc1ccncc1F | 4.77
149 | Cc1ccccc1NC(=O)CN | 7.81
150 | NCC(=O)CN | 8.32
151 | CNCCO | 9.91
152 | c1nc(Cc2c[nH]c(Cc3[nH]cc[nH+]3)n2)c[nH]1 | 6.15
153 | C=CC(=O)OCCN(C)C | 7.9
154 | c1ccc(Nc2ncnc3[nH]ncc23)cc1 | 3.92
155 | C1COCCOCc2n[nH]c(n2)COCCOCCO1 | 2.36

Row | Compound | pKa
156 | CSc1cccnc1 | 4.45
157 | COc1ccc(-c2nc3ncncc3[nH]2)c(OC)c1 | 3.09
158 | CCC(O)CN(CC(C)O)C(C)(C)C (configuration not stated) | 9.5
159 | NCCCCCCN | 11
160 | COc1nc2ncncc2[nH]1 | 3.14
161 | Cc1cc[nH+]c([O-])n1 | 3.15
162 | c1ccc(Oc2ccnc3c2ccc2c(Oc4ccccc4)ccnc23)cc1 | 5.34
163 | CCCCN1CCCCC1C(=O)Nc1c(C)cccc1C (configuration not stated) | 7.27
164 | Cn1c(=O)[nH]c(=O)c2[nH]cnc21 | 0.78
165 | COc1ccccc1/N=C/N(C)C | 8.11
166 | Cn1c[nH+]c2cc(N)ccc21 | 3.09
167 | [NH3+]CCCCc1ccncc1 | 5.81
168 | COc1ccc(-c2cnc(-c3ccc(OC)cc3)o2)cc1 | 1.41
169 | N[C@@H]1CCC[C@H](O)C1 | 10.1
170 | c1ccc(C2=NCCC2)cc1 | 7.2
171 | CC1CCCC(C)(C)N1C (configuration not stated) | 10.8
172 | Nc1cccc2[nH+]cccc12 | 0.97
173 | CC1(C)CCC(C2CCC(C)(C)[NH2+]2)N1 (configuration not stated) | 6.95
174 | CNC(C)Cc1ccc(OC)c(OC)c1 (configuration not stated) | 9.8
175 | Nc1nc([Se-])c2ncn([C@H]3O[C@@H](CO)[C@H](O)[C@@H]3O)c2n1 | 7.68
176 | c1ccc(NC2=NCCCO2)cc1 | 9.33
177 | O=C(Cc1ccccc1)C(CN1CCOCC1)c1ccccc1 (configuration not stated) | 6.17
